Results as given in ChEMBL document CHEMBL5724914, “Linking interpersonal differences in gut microbiota composition and drug biotransformation activity” (2024).

What was measured:
[1] = (§1) The drug is tested on Z-009 corresponding to pig gut metagenome with ENA study accession number: PRJEB37062 and ENA sample accession number: ERS12561809 for biotransformation under anaerobic condition. The drug concentrations were measured over 9 timepoints collected between 0 and 24 hours of incubation by liquid-chromatography-coupled mass spectrometry (LC–MS); settings: 2 µM
[2] = as §1, with “Z-002” for “Z-009”, “rabbit” for “pig”, “ERS12561802” for “ERS12561809”; settings: 2 µM
[3] = as §1, with “WLS-310” for “Z-009”, “human” for “pig”, “ERS12561785” for “ERS12561809”; settings: 2 µM
[4] = as §1, with “WLS-240” for “Z-009”, “human” for “pig”, “ERS12561773” for “ERS12561809”; settings: 2 µM
[5] = as §1, with “WLS-220” for “Z-009”, “human” for “pig”, “ERS12561769” for “ERS12561809”; settings: 2 µM
[6] = as §1, with “WLS-170” for “Z-009”, “human” for “pig”, “ERS12561762” for “ERS12561809”; settings: 2 µM
[7] = as §1, with “WLS-098” for “Z-009”, “human” for “pig”, “ERS12561754” for “ERS12561809”; settings: 2 µM
[8] = as §1, with “WLS-039” for “Z-009”, “human” for “pig”, “ERS12561746” for “ERS12561809”; settings: 2 µM
[9] = as §1, with “WLS-010” for “Z-009”, “human” for “pig”, “ERS12561743” for “ERS12561809”; settings: 2 µM
[10] = as §1, with “WLS-006” for “Z-009”, “human” for “pig”, “ERS12561741” for “ERS12561809”; settings: 2 µM
[11] = human gut metagenome, 24 h, 2 µM
[12] = human gut metagenome, 24 h, 2 µM; remark: listed apart in the source
[13] = human gut metagenome, 24 h, 2 µM; remark: listed apart in the source
[14] = human gut metagenome, 24 h, 2 µM; remark: listed apart in the source
[15] = human gut metagenome, 24 h, 2 µM; remark: listed apart in the source
[16] = human gut metagenome, 24 h, 2 µM; remark: listed apart in the source
[17] = human gut metagenome, 24 h, 2 µM; remark: listed apart in the source
[18] = human gut metagenome, 24 h, 2 µM; remark: listed apart in the source
[19] = human gut metagenome, 24 h, 2 µM; remark: listed apart in the source
[20] = human gut metagenome, 24 h, 2 µM; remark: listed apart in the source
Further: call rule not given here.

Row | SMILES | Bacterial Biotransformation [1] | Bacterial Biotransformation [2] | Bacterial Biotransformation [3] | Bacterial Biotransformation [4] | Bacterial Biotransformation [5] | Bacterial Biotransformation [6] | Bacterial Biotransformation [7] | Bacterial Biotransformation [8] | Bacterial Biotransformation [9] | Bacterial Biotransformation [10] | Bacterial Biotransformation [11] | Bacterial Biotransformation [12] | Bacterial Biotransformation [13] | Bacterial Biotransformation [14] | Bacterial Biotransformation [15] | Bacterial Biotransformation [16] | Bacterial Biotransformation [17] | Bacterial Biotransformation [18] | Bacterial Biotransformation [19] | Bacterial Biotransformation [20]
1 | CN1CCC(=C2c3ccccc3CC(=O)c3sccc32)CC1.O=C(O)/C=C/C(=O)O [KETOTIFEN FUMARATE] | Compound metabolized | Compound NOT metabolized | Compound metabolized | Compound metabolized | Compound metabolized | Compound metabolized | Compound metabolized | Compound NOT metabolized | Compound NOT metabolized | Compound metabolized | Compound NOT metabolized | Compound metabolized | Compound NOT metabolized | Compound metabolized | Compound metabolized | Compound metabolized | Compound metabolized | Compound NOT metabolized | Compound NOT metabolized | Compound metabolized
2 | CN(C)CCC=C1c2ccccc2COc2ccccc21 [DOXEPIN] | Compound metabolized | Compound NOT metabolized | Compound metabolized | Compound metabolized | Compound metabolized | Compound metabolized | Compound metabolized | Compound metabolized | Compound NOT metabolized | Compound NOT metabolized | Compound metabolized | Compound NOT metabolized | Compound NOT metabolized | Compound metabolized | Compound metabolized | Compound metabolized | Compound metabolized | Compound NOT metabolized | Compound NOT metabolized | Compound metabolized
3 | CC(C)c1c(CN(C)C(C)Cc2ccccc2)n(C)n(-c2ccccc2)c1=O (stereo not drawn) [FAMPROFAZONE] | Compound metabolized | Compound metabolized | Compound metabolized | Compound metabolized | Compound metabolized | Compound metabolized | Compound metabolized | Compound metabolized | Compound metabolized | Compound metabolized | Compound metabolized | Compound metabolized | Compound metabolized | Compound metabolized | Compound metabolized | Compound metabolized | Compound metabolized | Compound metabolized | Compound metabolized | Compound metabolized
4 | O=C(O)c1cc(/N=N/c2ccc(S(=O)(=O)Nc3ccccn3)cc2)ccc1O [SULFASALAZINE] | Compound metabolized | Compound metabolized | Compound metabolized | Compound metabolized | Compound metabolized | Compound metabolized | Compound metabolized | Compound metabolized | Compound metabolized | Compound metabolized | Compound metabolized | Compound metabolized | Compound metabolized | Compound metabolized | Compound metabolized | Compound metabolized | Compound metabolized | Compound metabolized | Compound metabolized | Compound metabolized
5 | COc1ccnc(C[S+]([O-])c2nc3ccc(OC(F)F)cc3[nH]2)c1OC (stereo not drawn) [PANTOPRAZOLE] | Compound NOT metabolized | Compound NOT metabolized | Compound metabolized | Compound metabolized | Compound metabolized | Compound metabolized | Compound metabolized | Compound metabolized | Compound metabolized | Compound metabolized | Compound metabolized | Compound metabolized | Compound metabolized | Compound metabolized | Compound metabolized | Compound metabolized | Compound metabolized | Compound NOT metabolized | Compound metabolized | Compound metabolized
6 | C[C@]12C=CC(=O)C=C1CC[C@@H]1[C@@H]2C(=O)C[C@@]2(C)[C@H]1CC[C@]2(O)C(=O)CO [PREDNISONE] | Compound metabolized | Compound metabolized | Compound metabolized | Compound metabolized | Compound metabolized | Compound metabolized | Compound metabolized | Compound metabolized | Compound metabolized | Compound metabolized | Compound metabolized | – | Compound metabolized | Compound metabolized | Compound metabolized | Compound metabolized | Compound metabolized | Compound NOT metabolized | Compound NOT metabolized | Compound metabolized
7 | N#Cc1ccc2[nH]cc(CCCCN3CCN(c4ccc5oc(C(N)=O)cc5c4)CC3)c2c1 [VILAZODONE] | Compound NOT metabolized | Compound metabolized | Compound metabolized | Compound metabolized | Compound metabolized | Compound metabolized | Compound metabolized | Compound metabolized | Compound metabolized | Compound metabolized | Compound metabolized | Compound metabolized | Compound metabolized | Compound metabolized | Compound metabolized | – | Compound metabolized | – | Compound NOT metabolized | –
8 | CC1=C(CC(=O)O)c2cc(F)ccc2/C1=C\c1ccc([S+](C)[O-])cc1 (stereo not drawn) | Compound NOT metabolized | Compound NOT metabolized | Compound metabolized | Compound metabolized | Compound metabolized | – | Compound metabolized | Compound metabolized | Compound metabolized | Compound metabolized | Compound metabolized | Compound metabolized | Compound metabolized | Compound metabolized | Compound metabolized | Compound metabolized | Compound metabolized | Compound metabolized | – | Compound metabolized
9 | CCS(=O)(=O)CCn1c([N+](=O)[O-])cnc1C [TINIDAZOLE] | Compound metabolized | Compound metabolized | Compound metabolized | Compound metabolized | Compound metabolized | Compound metabolized | Compound metabolized | Compound metabolized | Compound metabolized | Compound metabolized | Compound metabolized | Compound metabolized | Compound metabolized | Compound metabolized | Compound metabolized | Compound metabolized | – | Compound metabolized | Compound metabolized | Compound metabolized
